Laboratory results from ChEMBL document CHEMBL1144237, “Novel HCV NS5B polymerase inhibitors derived from 4-(1',1'-dioxo-1',4'-dihydro-1'lambda(6)-benzo[1',2',4']thiadiazin-3'-yl)-5-hydroxy-2H-pyridazin-3-ones. Part 5: Exploration of pyridazinones containing 6-amino-substituents” (Bioorg Med Chem Lett, 2008).

Test: Apparent permeability across human Caco-2 cell membrane
Format: ADME, cell-based

Compound	Papp [×10⁻⁶ cm/s]
CCCN(C)c1nn(CCC(C)C)c(=O)c(C2=NS(=O)(=O)c3cc(NS(C)(=O)=O)ccc3N2)c1O	0.12
CC(C)(C)CCn1nc(N2CCCC2)c(O)c(C2=NS(=O)(=O)c3cc(NS(C)(=O)=O)ccc3N2)c1=O	0.37
CC(C)CCn1nc(N2CCCC2)c(O)c(C2=Nc3ccc(NS(C)(=O)=O)cc3S(=O)(=O)N2)c1=O	0.32
CC(C)CCn1nc(N2CCOCC2)c(O)c(C2=NS(=O)(=O)c3cc(NS(C)(=O)=O)ccc3N2)c1=O	0.021
CCN(CC)c1nn(CCC(C)C)c(=O)c(C2=NS(=O)(=O)c3cc(NS(C)(=O)=O)ccc3N2)c1O	0.3
CC(C)CCn1nc(N(C)C(C)C)c(O)c(C2=NS(=O)(=O)c3cc(NS(C)(=O)=O)ccc3N2)c1=O	0.77
CC(C)CCn1nc(-c2cccs2)c(O)c(C2=Nc3ccc(NS(C)(=O)=O)cc3S(=O)(=O)N2)c1=O	0.02
CS(=O)(=O)Nc1ccc2c(c1)S(=O)(=O)N=C(c1c(O)c(N3CCCC3)nn(CCC3CC3)c1=O)N2	0.22
